Test results as given in patent US20070248950A1, “Supported polydiacetylene 3-D arrays for flourescent or phosphorescent detection” (Analytical Biological Services, Inc., priority 2006, published 2007).

Target: Bee venom phospholipase A2 (PLA2) (Apis mellifera, UniProt P00630)
Type: biochemical

Sequence of Bee venom phospholipase A2 (PLA2) (P00630 34-167 limits assumed): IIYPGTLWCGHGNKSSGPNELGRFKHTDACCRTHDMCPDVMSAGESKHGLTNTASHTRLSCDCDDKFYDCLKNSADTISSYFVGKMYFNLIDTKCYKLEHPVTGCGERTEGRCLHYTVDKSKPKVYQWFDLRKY

Structure (SMILES): CC(=O)O[C@H]1C[C@@H]2[C@@]3(C)CCCC(C)(C)[C@@H]3CC[C@@]2(C)[C@@H]2CC=C(C=O)[C@H](C=O)[C@@]12C [schalaradiol, 12-epi-scalaradial]
- inhibition of PLA2 activity (rise in emission at 640 nm of supported liposomes): partial inhibition
